What all share (type): in vivo
Experiment [1] has as its system black bean aphids (Aphis fabae). In words: Black bean aphid dip test on broad bean (plants and aphids dipped in the preparation). As to conditions: 300 ppm (content of active compound), Vicia faba plants and aphids dipped 5 seconds, after 3 and 6 days storage, read-out: mortality among the aphids. The procedure: Germinated broad bean seeds (Vicia faba) with radicles were transferred into brown glass bottles filled with tap water and subsequently populated with approximately 100 black bean aphids (Aphis fabae). Plants and aphids were then dipped for 5 seconds into an aqueous solution of the formulated preparation to be examined. After the solution had dripped off, plants and animals were kept in a climatized chamber (16 hours of light/day, 25° C., 40-60% relative atmospheric humidity). After 3 and 6 days storage, the effect of the preparation on the aphids was determined. At a concentration of 300 ppm (based on the content of active compound), the preparations of Example Nos. 1/37, 1/78, 1/136, 1/94, 1/174, 1/14, 1/125, 1/187, 1/17, 1/84, 1/52, 1/82, 1/70, 3/74, 1/54, 1/81, 1/42, 3/161, 1/186 effected a mortality of 90-100% among the aphids. (The active compounds are numbered with the Table/No. in the table).

Experiment [2] has the same test system. In words: Root-systemic activity against black bean aphids on broad bean. Conditions: 30 ppm (content of active compound), 4 ml solution pipetted into the bottle with Vicia faba, after 3 and 6 days storage, read-out: mortality among the aphids by root-systemic action. The procedure: Germinated broad bean seeds (Vicia faba) with radicles were transferred into brown glass bottles filled with tap water. Four milliliters of an aqueous solution of the formulated preparation to be examined were pipetted into the brown glass bottle. The broad bean was subsequently heavily populated with approximately 100 black bean aphids (Aphis fabae). Plants and animals were then stored in a climatized chamber (16 hours of light/day, 25° C., 40-60% relative atmospheric humidity). After 3 and 6 days storage, the root-systemic activity of the preparation on the aphids was determined. At a concentration of 30 ppm (based on the content of active compound), the preparations of Example Nos. 1/53, 1/26, 1/37, 1/78, 1/136, 1/56, 1/94, 1/174, 1/14, 1/187, 1/84, 1/52, 1/82, 1/70, 1/32, 3/74, 1/54, 1/81, 1/42, 3/227, 3/161 effected a mortality of 90-100% among the aphids by root-systemic action.

Experiment [3] relates to larvae (L3 stage) of the rice leafhopper species Nilaparvata lugens. As to the kind of experiment: Rice leafhopper test on dipped rice plants. Conditions: 144 h, 300 ppm (content of active compound), rice leaves dipped 5 seconds, after 6 days storage, read-out: mortality among the leafhopper larvae. The procedure: The leaves of 12 rice plants having a stem length of 8 cm were dipped for 5 seconds into an aqueous solution of the formulated preparation to be examined. After the solution had dripped off, the rice plants treated in this manner were placed in a Petri dish and populated with approximately 20 larvae (L3 stage) of the rice leafhopper species Nilaparvata lugens. The Petri dish was closed and stored in a climatized chamber (16 hours of light/day, 25° C., 40-60% relative atmospheric humidity). After 6 days storage, the mortality among the leafhopper larvae was determined. At a concentration of 300 ppm (based on the content of active compound), the preparations of Example Nos. 1/53, 1/26, 1/164, 1/174, 1/82, 1/42 effected a mortality of 90-100%.

Mortality data for two compounds are collected here from US6555501B1, “4-trifluoromethyl-3-oxazolylpyridines, processes for their preparation, compositions comprising them and their use as pesticides” (Hoechst Schering AgrEvo GmbH, priority 1998, dated 2003).

As to `CCCSCc1cnc(-c2cnccc2C(F)(F)F)o1` [1/136, 5-n-Propylthiomethyl-2-(4-trifluoromethyl-3-pyridyl)-oxazole], in experiment [1], the mortality at 300 ppm is 90 to 100%. Also, the mortality at 30 ppm in experiment [2] is 90 to 100%.

Take `O=Cc1cnc(-c2cnccc2C(F)(F)F)o1` [1/164, 5-formyl-2-(4-trifluoromethyl-3-pyridyl)-oxazole]: the mortality at 300 ppm in experiment [3] lay in the range of 90 to 100%.

In general, mortality refers to the percentage killed.
